These results are taken from PubChem BioAssay AID270 (DTP/NCI, 2004).

This test deals with BDF1 mice, s.c. Lewis lung carcinoma, T/C %. As to the kind of experiment: NCI In Vivo Anticancer Drug Screen. Data for tumor model Lewis Lung Carcinoma (subcutaneous) in B6D2F1 (BDF1) mice. The method in brief:
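The value reflects a ratio in which the treated cohort's survival time or tumour size is compared against mice receiving only vehicle.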

Several values for one entry are separate records, joined by “and”; a condition that tells them apart may be missing. Identical values can stand only once. Inconclusive results are not listed. *1 amine or outer side, *2 acyl side, *3 side chain or, on linkers, in order; H or OH if unused. Where a SMILES comes first, the peptide text is derived from it. Bridges are numbered along the chain shown (N, C = ends). Roman numbers before positions name the chains, in order. [ ]: non-standard residue; d: D form. Actinocin(9to1) = Cc1c2oc3c(C)ccc(C(=O)[*:1])c3nc-2c(C(=O)[*:2])c(N)c1=O; aThr = C[C@H](O)[C@H](N)C(=O)O; NMeV = CN[C@H](C(=O)O)C(C)C; Sar = CNCC(=O)O

`O=CC(NC(=O)N(CCCl)N=O)C(O)C(O)C(O)CO` (stereo unspecified): the T/C by setting is: (endpoint: median survival time, dose: 1.25 mg/kg/injection, schedule: Q01DX009 (ip), vehicle: saline, higher = longer survival) 121 % of control; (endpoint: median survival time, dose: 2.5 mg/kg/injection, schedule: Q01DX009 (ip), vehicle: saline, higher = longer survival) 112 % of control; (endpoint: median survival time, dose: 3.3 mg/kg/injection, schedule: Q01DX009 (ip), vehicle: saline, higher = longer survival) 105 % of control; (endpoint: median survival time, dose: 4.9 mg/kg/injection, schedule: Q01DX009 (ip), vehicle: saline, higher = longer survival) 102 % of control; (endpoint: median survival time, dose: 5.0 mg/kg/injection, schedule: Q01DX009 (ip), vehicle: saline, higher = longer survival) 118 % of control; (endpoint: median survival time, dose: 7.4 mg/kg/injection, schedule: Q01DX009 (ip), vehicle: saline, higher = longer survival) 96 % of control. In addition, the T/C is, setting by setting: (endpoint: median survival time, dose: 10.0 mg/kg/injection, schedule: Q01DX001 (ip), vehicle: Klucel (hydroxypropylcellulose) (HPC), higher = longer survival) 88 % of control and 109 % of control; (endpoint: median survival time, dose: 10.0 mg/kg/injection, schedule: Q01DX009 (ip), vehicle: saline, higher = longer survival) 111 % of control; (endpoint: median survival time, dose: 12.0 mg/kg/injection, schedule: Q04DX003 (ip), vehicle: saline, higher = longer survival) 93 % of control; (endpoint: median survival time, dose: 16.0 mg/kg/injection, schedule: Q01DX001 (ip), vehicle: saline, higher = longer survival) 110 % of control; (endpoint: median survival time, dose: 18.0 mg/kg/injection, schedule: Q04DX003 (ip), vehicle: saline, higher = longer survival) 108 % of control; (endpoint: median survival time, dose: 20.0 mg/kg/injection, schedule: Q01DX001 (ip), vehicle: Klucel (hydroxypropylcellulose) (HPC), higher = longer survival) 95 % of control. Further, the T/C reads like this: (endpoint: median survival time, dose: 24.0 mg/kg/injection, schedule: Q01DX001 (ip), vehicle: saline, higher = longer survival) 96 % of control; (endpoint: median survival time, dose: 36.0 mg/kg/injection, schedule: Q01DX001 (ip), vehicle: saline, higher = longer survival) 98 % of control.
With `CC(=O)Oc1ccc(/C=N/NC(N)=S)nc1`, the T/C is 97 % of control (endpoint: median survival time, dose: 9.4 mg/kg/injection, schedule: Q01DX009 (ip), vehicle: saline with Tween-80, higher = longer survival); 97 % of control (endpoint: median survival time, dose: 18.8 mg/kg/injection, schedule: Q01DX009 (ip), vehicle: saline with Tween-80, higher = longer survival); 100 % of control (endpoint: median survival time, dose: 25.0 mg/kg/injection, schedule: Q01DX009 (ip), vehicle: saline with Tween-80, higher = longer survival); 101 % of control (endpoint: median survival time, dose: 37.5 mg/kg/injection, schedule: Q01DX009 (ip), vehicle: saline with Tween-80, higher = longer survival); 107 % of control (endpoint: median survival time, dose: 50.0 mg/kg/injection, schedule: Q01DX009 (ip), vehicle: saline with Tween-80, higher = longer survival); 117 % of control (endpoint: median survival time, dose: 75.0 mg/kg/injection, schedule: Q01DX009 (ip), vehicle: saline with Tween-80, higher = longer survival). Also, the T/C was 117 % of control (endpoint: median survival time, dose: 100.0 mg/kg/injection, schedule: Q01DX009 (ip), vehicle: saline with Tween-80, higher = longer survival); 96 % of control (endpoint: median tumor weight (est.), dose: 24.0 mg/kg/injection, schedule: Q03HX024 (ip), vehicle: saline with Tween-80, higher = larger tumour); 41 % of control (endpoint: median tumor weight (est.), dose: 36.0 mg/kg/injection, schedule: Q03HX024 (ip), vehicle: saline with Tween-80, higher = larger tumour).
With `C=C(C)C12CC(C)C34OC5(CCCCCCCC(C)C6C(C)C(OC(=O)c7ccccc7)C(O)(C(O)C7(COC(=O)CCCCCCCCCCCCCCC)OC7C3C1O5)C64)O2` (stereo unspecified), the T/C runs as follows: (endpoint: median survival time, dose: 1.0 micrograms/kg/injection, schedule: Q01DX009 (ip), vehicle: Klucel (hydroxypropylcellulose) (HPC), higher = longer survival) 93 % of control; (endpoint: median survival time, dose: 1.9 micrograms/kg/injection, schedule: Q01DX009 (ip), vehicle: Klucel (hydroxypropylcellulose) (HPC), higher = longer survival) 209 % of control; (endpoint: median survival time, dose: 2.0 micrograms/kg/injection, schedule: Q01DX009 (ip), vehicle: Klucel (hydroxypropylcellulose) (HPC), higher = longer survival) 86 % of control; (endpoint: median survival time, dose: 3.8 micrograms/kg/injection, schedule: Q01DX009 (ip), vehicle: Klucel (hydroxypropylcellulose) (HPC), higher = longer survival) 208 % of control; (endpoint: median survival time, dose: 4.0 micrograms/kg/injection, schedule: Q01DX009 (ip), vehicle: Klucel (hydroxypropylcellulose) (HPC), higher = longer survival) 97 % of control; (endpoint: median survival time, dose: 7.5 micrograms/kg/injection, schedule: Q01DX009 (ip), vehicle: Klucel (hydroxypropylcellulose) (HPC), higher = longer survival) 209 % of control. Also, the T/C (endpoint: median survival time, dose: 8.0 micrograms/kg/injection, schedule: Q01DX009 (ip), vehicle: Klucel (hydroxypropylcellulose) (HPC), higher = longer survival) is 96 % of control; the T/C (endpoint: median survival time, dose: 15.0 micrograms/kg/injection, schedule: Q01DX009 (ip), vehicle: Klucel (hydroxypropylcellulose) (HPC), higher = longer survival) is 101 % of control; the T/C (endpoint: median survival time, dose: 16.0 micrograms/kg/injection, schedule: Q01DX009 (ip), vehicle: Klucel (hydroxypropylcellulose) (HPC), higher = longer survival) was 88 % of control.
Take `CCCCCC[C@H]([C@H](C)O)n1cnc2c(N)ncnc21`: the T/C was 88 % of control (endpoint: median survival time, dose: 25.0 mg/kg/injection, schedule: Q01DX009 (ip), vehicle: Klucel (hydroxypropylcellulose) (HPC), higher = longer survival); 103 % of control (endpoint: median survival time, dose: 50.0 mg/kg/injection, schedule: Q01DX009 (ip), vehicle: Klucel (hydroxypropylcellulose) (HPC), higher = longer survival); 111 % of control (endpoint: median survival time, dose: 100.0 mg/kg/injection, schedule: Q01DX009 (ip), vehicle: Klucel (hydroxypropylcellulose) (HPC), higher = longer survival).
With `Cc1c2oc3c(C)ccc(C(=O)N[C@@H]4C(=O)N[C@H](C(C)C)C(=O)N5CCC[C@H]5C(=O)N(C)CC(=O)N(C)[C@@H](C(C)C)C(=O)O[C@H]4C)c3nc-2c(C(=O)N[C@@H]2C(=O)N[C@H](C(C)C)C(=O)N3CCC[C@H]3C(=O)N(C)CC(=O)N(C)[C@@H](C(C)C)C(=O)O[C@H]2C)c(N)c1=O` (I: [aThr][dV]P[Sar][NMeV] / II: [aThr][dV]P[Sar][NMeV]; ester I:1-I:C, II:1-II:C; linker I:N-II:N via Actinocin(9to1)), the T/C was 89 % of control (endpoint: mean tumor weight, dose: 0.03 mg/kg/injection, schedule: Q01DX011 (ip), vehicle: saline, higher = larger tumour); 55 % of control (endpoint: mean tumor weight, dose: 0.05 mg/kg/injection, schedule: Q01DX011 (ip), vehicle: saline, higher = larger tumour); 122 % of control (endpoint: mean tumor weight, dose: 12.0 micrograms/kg/injection, schedule: Q01DX011 (ip), vehicle: other, higher = larger tumour); 95 % of control and 98 % of control (endpoint: mean tumor weight, dose: 25.0 micrograms/kg/injection, schedule: Q01DX011 (ip), vehicle: other, higher = larger tumour); 42 % of control and 49 % of control (endpoint: mean tumor weight, dose: 50.0 micrograms/kg/injection, schedule: Q01DX011 (ip), vehicle: other, higher = larger tumour); 98 % of control and 122 % of control (endpoint: median survival time, dose: 12.5 micrograms/kg/injection, schedule: Q01DX009 (ip), vehicle: saline, higher = longer survival). Moreover, the T/C was 112 % of control (endpoint: median survival time, dose: 12.5 micrograms/kg/injection, schedule: Q01DX009 (ip), vehicle: water, higher = longer survival); 116 % of control (endpoint: median survival time, dose: 13.0 micrograms/kg/injection, schedule: Q01DX009 (ip), vehicle: saline, higher = longer survival); 120 % of control (endpoint: median survival time, dose: 25.0 micrograms/kg/injection, schedule: Q01DX009 (ip), vehicle: water, higher = longer survival); 102 % of control (endpoint: median survival time, dose: 50.0 micrograms/kg/injection, schedule: Q01DX009 (ip), vehicle: water, higher = longer survival); 153 % of control (endpoint: median survival time, dose: 75.0 micrograms/kg/injection, schedule: Q04DX003 (ip), vehicle: water, higher = longer survival); 105 % of control (endpoint: median survival time, dose: 150.0 micrograms/kg/injection, schedule: Q04DX003 (ip), vehicle: water, higher = longer survival). Besides, the T/C by setting is: (endpoint: median tumor weight (est.), dose: 12.0 micrograms/kg/injection, schedule: Q01DX009 (ip), vehicle: saline, higher = larger tumour) 88 % of control; (endpoint: median tumor weight (est.), dose: 25.0 micrograms/kg/injection, schedule: Q01DX009 (ip), vehicle: saline, higher = larger tumour) 98 % of control; (endpoint: median tumor weight (est.), dose: 50.0 micrograms/kg/injection, schedule: Q01DX009 (ip), vehicle: saline, higher = larger tumour) 70 % of control; (endpoint: median tumor weight (est.), dose: 100.0 micrograms/kg/injection, schedule: Q01DX009 (ip), vehicle: saline, higher = larger tumour) 51 % of control.
